# Key:
# Format in all cases: in vivo
# [1] = system: spring barley (Hordeum vulgare); experiment: Test C pre-/postemergence plant response
# Method in brief: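 Scores (0 = no effect, 100 = complete control) are visual assessments made against control plants 15–25 days post-treatment in a controlled environment. Applications were preemergence and postemergence, with postemergence plants between 1- and 4-leaf stage.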
# [2] = system: barnyardgrass (Echinochloa crus-galli); experiment: Test E pre-/postemergence plant response
# Excerpt: (§1) Seeds of plant species selected from bermudagrass (Cynodon dactylon), Surinam grass (Brachiaria decumbens), large crabgrass (Digitaria sanguinalis), green foxtail (Setaria viridis), goosegrass (Eleusine indica), johnsongrass (Sorghum halepense), kochia (Kochia scoparia), pitted morningglory (Ipomoea lacunosa), purple nutsedge (Cyperus rotundus), common ragweed (Ambrosia elation), black mustard (Brassica nigra), guineagrass (Panicum maximum), dallisgrass (Paspalum dilatatum), barnyardgrass (Echinochloa crus-galli), southern (S.) sandbur (Cenchrus echinatus), common sowthistle (Sonchus oleraceous), prickly sida (Sida spinosa), Italian ryegrass (Lolium multiflorum), common purslane (Portulaca oleracea), broadleaf signalgrass (Brachiaria platyphylla), common groundsel (Senecio vulgaris), common chickweed (Stellaria media), Virginia (V.) dayflower (Commelina virginica), tropical (T.) spiderwort (Commelina benghalensis), annual bluegrass (Poa annua), naked crabgrass (Digitaria nuda), itchgrass (Rottboellia cochinchinensis), quackgrass (Elytrigia repens), Canada horseweed (Conyza canadensis), field bindweed (Convolvulus arvensis), spanishneedles (Bidens bipinnata), common mallow (Malva sylvestris) and Russian thistle (Salsola kali) were planted and treated preemergence with test chemicals formulated in a non-phytotoxic solvent mixture which included a surfactant. At the same time, plants selected from these weed species were treated with postemergence applications of some of the test chemicals formulated in the same manner. Plants ranged in height from 2 to 18 cm (1- to 4-leaf stage) for postemergence treatments.
# (§2) Treated plants and controls were maintained in a greenhouse for 14 to 21 days, after which time all species were compared to controls and visually evaluated. Plant response ratings, summarized in Table E, are based on a scale of 0 to 100 where 0 is no effect and 100 is complete control. A dash (-) response means no test result.
# [3] = system: bermudagrass (Cynodon dactylon); experiment: Test E pre-/postemergence plant response; details: scale 0 to 100
# Excerpt: as §1, §2
# [4] = system: common mallow (Malva sylvestris); experiment: Test E pre-/postemergence plant response; details: scale 0 to 100
# Excerpt: as §1, §2
# [5] = system: common purslane (Portulaca oleracea); experiment: Test E pre-/postemergence plant response; details: scale 0 to 100
# Excerpt: as §1, §2
# [6] = system: pitted morningglory (Ipomoea lacunosa); experiment: Test E pre-/postemergence plant response; details: scale 0 to 100
# Excerpt: as §1, §2
# [7] = system: quackgrass (Elytrigia repens); experiment: Test E pre-/postemergence plant response; details: scale 0 to 100
# Excerpt: as §1, §2
# [8] = system: southern (S.) sandbur (Cenchrus echinatus); experiment: Test E pre-/postemergence plant response; details: scale 0 to 100
# Excerpt: as §1, §2
smiles,measurement,setting,value
CCc1cc(-c2ccc(C(F)(F)F)cc2)nn1-c1c(OS(C)(=O)=O)cnn(C)c1=O [Compound 19],"Plant response rating, Barley, Spring","[1]; Postemergence, 8 g ai/ha, scale 0 to 100, 0 no effect, 100 complete control",20
same,"Plant response rating, Barley, Spring","[1]; Postemergence, 16 g ai/ha, scale 0 to 100, 0 no effect, 100 complete control",90
same,"Plant response rating, Barley, Spring","[1]; Postemergence, 31 g ai/ha, scale 0 to 100, 0 no effect, 100 complete control",100
same,"Plant response rating, Barley, Spring","[1]; Postemergence, 62 g ai/ha, scale 0 to 100, 0 no effect, 100 complete control",100
same,"Plant response rating, Barley, Spring","[1]; Preemergence, 8 g ai/ha, scale 0 to 100 (0 no effect, 100 complete control)",50
same,"Plant response rating, Barley, Spring","[1]; Preemergence, 16 g ai/ha, scale 0 to 100 (0 no effect, 100 complete control)",65
same,"Plant response rating, Barley, Spring","[1]; Preemergence, 31 g ai/ha, scale 0 to 100 (0 no effect, 100 complete control)",65
same,"Plant response rating, Barley, Spring","[1]; Preemergence, 62 g ai/ha, scale 0 to 100, 0 no effect, 100 complete control",80
same,"Plant response rating, Barnyardgrass","[2]; 4 g ai/ha, Postemergence, scale 0 to 100",90
same,"Plant response rating, Barnyardgrass","[2]; 8 g ai/ha, Preemergence, scale 0 to 100",75
same,"Plant response rating, Barnyardgrass","[2]; 16 g ai/ha, Preemergence, scale 0 to 100",95
same,"Plant response rating, Barnyardgrass","[2]; 31 g ai/ha, Preemergence, scale 0 to 100",100
same,"Plant response rating, Barnyardgrass","[2]; Postemergence, 8 g ai/ha, scale 0 to 100",98
same,"Plant response rating, Barnyardgrass","[2]; Postemergence, 16 g ai/ha, scale 0 to 100",100
same,"Plant response rating, Barnyardgrass","[2]; Postemergence, 31 g ai/ha, scale 0 to 100",100
same,"Plant response rating, Barnyardgrass","[2]; Preemergence, 4 g ai/ha, scale 0 to 100, 0 no effect, 100 complete control",0
same,"Plant response rating, Bermudagrass","[3]; 4 g ai/ha, Postemergence",15
same,"Plant response rating, Bermudagrass","[3]; 8 g ai/ha, Preemergence",60
same,"Plant response rating, Bermudagrass","[3]; 16 g ai/ha, Preemergence",95
same,"Plant response rating, Bermudagrass","[3]; 31 g ai/ha, Preemergence",100
same,"Plant response rating, Bermudagrass","[3]; Postemergence, 8 g ai/ha",35
same,"Plant response rating, Bermudagrass","[3]; Postemergence, 16 g ai/ha",35
same,"Plant response rating, Bermudagrass","[3]; Postemergence, 31 g ai/ha",80
same,"Plant response rating, Bermudagrass","[3]; Preemergence, 4 g ai/ha",25
same,"Plant response rating, Mallow","[4]; 4 g ai/ha, Postemergence",0
same,"Plant response rating, Mallow","[4]; 16 g ai/ha, Preemergence",0
same,"Plant response rating, Mallow","[4]; 31 g ai/ha, Preemergence",0
same,"Plant response rating, Mallow","[4]; Postemergence, 8 g ai/ha",0
same,"Plant response rating, Mallow","[4]; Postemergence, 16 g ai/ha",0
same,"Plant response rating, Mallow","[4]; Postemergence, 31 g ai/ha",0
same,"Plant response rating, Purslane","[5]; 4 g ai/ha, Postemergence",0
same,"Plant response rating, Purslane","[5]; 16 g ai/ha, Preemergence",0
same,"Plant response rating, Purslane","[5]; 31 g ai/ha, Preemergence",0
same,"Plant response rating, Purslane","[5]; Postemergence, 8 g ai/ha",0
same,"Plant response rating, Purslane","[5]; Postemergence, 16 g ai/ha",0
same,"Plant response rating, Purslane","[5]; Postemergence, 31 g ai/ha",0
same,"Plant response rating, Purslane","[5]; Preemergence, 4 g ai/ha",0
same,"Plant response rating, Morningglory","[6]; 4 g ai/ha, Postemergence",0
same,"Plant response rating, Morningglory","[6]; 16 g ai/ha, Preemergence",0
same,"Plant response rating, Morningglory","[6]; 31 g ai/ha, Preemergence",0
same,"Plant response rating, Morningglory","[6]; Postemergence, 8 g ai/ha",0
same,"Plant response rating, Morningglory","[6]; Postemergence, 16 g ai/ha",0
same,"Plant response rating, Morningglory","[6]; Postemergence, 31 g ai/ha",0
same,"Plant response rating, Morningglory","[6]; Preemergence, 4 g ai/ha",0
same,"Plant response rating, Quackgrass","[7]; 4 g ai/ha, Postemergence",0
same,"Plant response rating, Quackgrass","[7]; 16 g ai/ha, Preemergence",65
same,"Plant response rating, Quackgrass","[7]; 31 g ai/ha, Preemergence",80
same,"Plant response rating, Quackgrass","[7]; Postemergence, 8 g ai/ha",15
same,"Plant response rating, Quackgrass","[7]; Postemergence, 16 g ai/ha",75
same,"Plant response rating, Quackgrass","[7]; Postemergence, 31 g ai/ha",80
same,"Plant response rating, Quackgrass","[7]; Preemergence, 4 g ai/ha",0
same,"Plant response rating, Sandbur, S.","[8]; 4 g ai/ha, Postemergence",90
same,"Plant response rating, Sandbur, S.","[8]; 16 g ai/ha, Preemergence",80
same,"Plant response rating, Sandbur, S.","[8]; 31 g ai/ha, Preemergence",95
same,"Plant response rating, Sandbur, S.","[8]; Postemergence, 8 g ai/ha",98
same,"Plant response rating, Sandbur, S.","[8]; Postemergence, 16 g ai/ha",98
same,"Plant response rating, Sandbur, S.","[8]; Postemergence, 31 g ai/ha",100
same,"Plant response rating, Sandbur, S.","[8]; Preemergence, 4 g ai/ha",0
